Results reported in PubChem BioAssay (NCI).
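A five-concentration, 48-hour dose response in 96-well plates underlies each endpoint, interpolated linearly between surrounding concentrations. GI50 = concentration required for 50% inhibition of growth. The concentration for full growth arrest is given as TGI.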

Tests used:
Assay in all cases: NCI anticancer screen, dose series, 48 h
[1] = test system: LOX IMVI melanoma
[2] = test system: NCI-H460 lung
[3] = test system: SNB-75 CNS
[4] = test system: SF-539 CNS
[5] = test system: KM12 colon
[6] = test system: OVCAR-3 ovarian
[7] = test system: NCI-H522 lung
[8] = test system: MDA-N
[9] = test system: HOP-62 NSCLC
[10] = test system: UO-31 renal

SMILES | TGI [1] [µM] | TGI [2] [µM] | TGI [3] [µM] | TGI [4] [µM] | TGI [5] [µM] | TGI [6] [µM] | TGI [7] [µM] | TGI [8] [µM] | TGI [9] [µM] | TGI [10] [µM] | GI50 [2] [µM]
CCCC(CC)c1cc(O)c(O)cc1C(CC)CCC (centres undefined) | > 10 | > 10 | > 10 | > 10 | > 10 | > 10 | > 10 | > 10 | > 10 | > 10 | –
COC(=O)NC(Nc1ccc(C)cc1)(C(F)(F)F)C(F)(F)F | > 100 | > 100 | > 100 | > 100 | > 100 | > 100 | > 100 | > 100 | > 100 | > 100 | –
COc1ccc2c3c([nH]c2c1)-c1nc2ccccc2c(=O)n1CC3 | – | > 25 | > 25 | > 25 | > 25 | – | > 25 | > 25 | > 25 | > 25 | 1.38
CC(=O)Nc1nc(C)c(S(=O)(=O)NC(=O)N2c3ccccc3CCc3ccccc32)s1 | > 100 | > 100 | > 100 | > 100 | > 100 | > 100 | > 100 | > 100 | > 100 | > 100 | –
COc1c(-c2ccc(F)cc2)oc2cc(O)cc(O)c2c1=O | 54.5 | 59.9 | 64 | 39.7 | 98.4 | > 100 | 44.2 | 62 | 38.4 | 42.1 | –
O=C1CCc2cc3c(cc21)C(C(=O)O)CC3 (centres undefined) | > 100 | > 100 | > 100 | > 100 | > 100 | – | > 100 | > 100 | > 100 | > 100 | –
COc1ccc(Nc2nc(NNC(=O)Cc3ccccc3)nc(NNC(=O)c3ccncc3)n2)cc1 | > 10 | > 10 | > 10 | > 10 | > 10 | > 10 | > 10 | > 10 | > 10 | > 10 | –
COc1ccc(OC)c(-c2cn3c(n2)sc2ccccc23)c1 | > 100 | > 100 | > 100 | > 100 | > 100 | > 100 | > 100 | > 100 | > 100 | > 100 | –
O=P1(N(CCCl)CCCl)NCCCO1 (centres undefined) | > 250 | > 238 | > 250 | > 250 | > 238 | > 250 | > 250 | > 250 | > 250 | > 250 | –
CCCCCCCCCCC[N+]1(Cc2ccccc2)CC2CCN(Cc3ccccc3)CC2C1 (centres undefined) | 1.6 | 2.58 | 2.45 | 2.45 | 0.902 | 1.28 | 1.29 | 1.25 | 2.14 | 2.56 | –
Cc1cc2nc3c(N)nn(CCN(C)C)c3nc2cc1C | 76.2 | > 100 | 97.9 | > 100 | > 100 | > 100 | > 100 | > 100 | > 100 | > 100 | –
CC(=O)c1cc(S(=O)(=O)c2ccc(O)c(C(C)=O)c2)ccc1O | > 100 | > 100 | – | > 100 | > 100 | > 100 | > 100 | > 100 | > 100 | > 100 | –
CC(C)CCCC(C)[C@H]1CC[C@H]2NCCCC[C@]12C (some centres undefined) | 4.23 | 4.25 | 16 | 19.5 | 6.96 | 31.7 | – | 3.99 | 29.1 | 20.7 | –
Cn1c(=O)[nH]n(-c2ccc3ccccc3c2)c1=O | > 100 | > 100 | > 100 | > 100 | > 100 | > 100 | > 100 | > 100 | – | > 100 | –
Cc1ccc(C2(N3CCOCC3)OC(C)(C)c3cccc4cccc2c34)cc1 (centres undefined) | 31 | 30.2 | 30.5 | 34.8 | 57.2 | 34.4 | 30.8 | 34.1 | 32.9 | 31 | –
Nc1cc2ncnc(Nc3cccc(Br)c3)c2cn1 | > 100 | > 100 | > 100 | > 100 | 63.9 | > 100 | – | > 100 | > 100 | > 100 | –
Cn1c(O)c(/C=N/c2ncccn2)c(=O)[nH]c1=O | > 100 | > 100 | > 100 | > 100 | > 100 | > 100 | > 100 | > 100 | > 100 | > 100 | –
CC1Cc2c(cc(N)nc2Br)NC1=O (centres undefined) | > 100 | > 100 | > 100 | > 100 | > 100 | > 100 | > 100 | > 100 | > 100 | > 100 | –
Cc1ccc(C(=O)NN=C(/N=N/c2cccc(C)c2)c2ccc(N(C)C)cc2)cc1 | > 100 | > 100 | – | > 100 | > 100 | > 100 | > 100 | > 100 | – | > 100 | –
CCCCNC(=S)Nc1nc(C(=O)NNC(=S)NCc2ccccc2)cs1 | > 100 | – | – | 68.6 | > 100 | > 100 | > 100 | > 100 | > 100 | > 100 | –
COC(=O)c1c(C)cccc1C1CN=NC12Cc1cccc(C)c1C2=O (centres undefined) | 32.7 | 45.1 | > 100 | 44.5 | > 100 | – | 75.7 | > 100 | > 100 | 67.7 | –
